Measurements from US7468391B2, “Methods for treating retinoid responsive disorders using selective inhibitors of CYP26A and CYP26B” (Allergan, Inc., priority 2003, dated 2008).

How the values were obtained:
[1] = target: T1, RAR β (Homo sapiens, UniProt P10826); experiment: RAR β Kd; format: binding; conditions: last item of cell EC50/(EFFICACY)/Kd
T1 sequence (P10826 1-455): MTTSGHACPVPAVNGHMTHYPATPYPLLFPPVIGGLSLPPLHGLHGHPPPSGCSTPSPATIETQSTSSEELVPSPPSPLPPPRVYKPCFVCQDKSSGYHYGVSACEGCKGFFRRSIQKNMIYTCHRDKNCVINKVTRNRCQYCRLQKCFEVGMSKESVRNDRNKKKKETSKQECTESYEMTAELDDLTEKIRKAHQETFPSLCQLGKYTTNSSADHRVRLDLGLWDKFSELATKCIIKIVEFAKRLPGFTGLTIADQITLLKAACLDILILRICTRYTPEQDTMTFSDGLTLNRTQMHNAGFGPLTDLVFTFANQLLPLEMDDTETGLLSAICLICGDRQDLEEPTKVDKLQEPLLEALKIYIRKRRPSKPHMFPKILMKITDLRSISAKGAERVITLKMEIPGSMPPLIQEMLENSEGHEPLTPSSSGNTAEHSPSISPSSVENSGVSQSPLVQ

[2] = target: T1, RAR β; experiment: RAR β EC50/(efficacy); format: cell-based; conditions: value in brackets of cell EC50/(EFFICACY)/Kd
[3] = target: T2, RAR γ (Homo sapiens, UniProt P13631); experiment: RAR γ Kd; format: binding; conditions: last item of cell EC50/(EFFICACY)/Kd
T2 sequence (P13631 1-454): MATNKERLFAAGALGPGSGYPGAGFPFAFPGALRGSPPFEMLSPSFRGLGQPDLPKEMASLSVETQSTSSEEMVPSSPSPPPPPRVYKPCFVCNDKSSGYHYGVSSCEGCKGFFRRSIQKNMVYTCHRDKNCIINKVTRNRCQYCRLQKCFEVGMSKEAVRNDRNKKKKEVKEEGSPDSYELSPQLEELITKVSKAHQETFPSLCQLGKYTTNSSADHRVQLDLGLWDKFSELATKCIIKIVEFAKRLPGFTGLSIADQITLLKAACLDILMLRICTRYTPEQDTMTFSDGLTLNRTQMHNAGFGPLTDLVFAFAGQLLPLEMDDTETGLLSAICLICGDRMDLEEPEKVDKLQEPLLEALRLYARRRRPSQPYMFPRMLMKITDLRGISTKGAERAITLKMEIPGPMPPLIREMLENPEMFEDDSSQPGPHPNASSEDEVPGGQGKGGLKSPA

[4] = target: T3, RAR α (Homo sapiens, UniProt P10276); experiment: RAR α Kd; format: binding; conditions: last item of cell EC50/(EFFICACY)/Kd
T3 sequence (P10276 1-462): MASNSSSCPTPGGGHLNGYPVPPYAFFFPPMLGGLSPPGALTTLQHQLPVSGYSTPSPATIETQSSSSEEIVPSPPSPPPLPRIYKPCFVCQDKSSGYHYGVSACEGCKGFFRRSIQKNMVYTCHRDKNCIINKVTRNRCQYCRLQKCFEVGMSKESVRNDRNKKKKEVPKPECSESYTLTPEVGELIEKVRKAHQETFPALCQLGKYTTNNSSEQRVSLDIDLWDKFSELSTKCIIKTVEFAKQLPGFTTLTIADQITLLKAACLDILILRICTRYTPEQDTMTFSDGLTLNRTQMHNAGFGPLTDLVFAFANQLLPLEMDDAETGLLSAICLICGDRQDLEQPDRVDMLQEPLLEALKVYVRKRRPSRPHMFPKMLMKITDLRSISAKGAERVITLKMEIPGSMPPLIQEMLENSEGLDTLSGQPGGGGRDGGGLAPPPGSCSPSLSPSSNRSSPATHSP

[5] = target: T4, CYP26A (P450RAI-1) (Homo sapiens, UniProt O43174); experiment: Cell-based inhibition of RA metabolism in CYP26A stably transfected HeLa cells; conditions: stably transfected HeLa cells, [3H]-RA, 3 hours at 37° C.; read-out: P450RAI-1 Whole cell IC50
T4 construct: expressed in transfected cells; host or cells: HeLa
T4 sequence (O43174 1-497): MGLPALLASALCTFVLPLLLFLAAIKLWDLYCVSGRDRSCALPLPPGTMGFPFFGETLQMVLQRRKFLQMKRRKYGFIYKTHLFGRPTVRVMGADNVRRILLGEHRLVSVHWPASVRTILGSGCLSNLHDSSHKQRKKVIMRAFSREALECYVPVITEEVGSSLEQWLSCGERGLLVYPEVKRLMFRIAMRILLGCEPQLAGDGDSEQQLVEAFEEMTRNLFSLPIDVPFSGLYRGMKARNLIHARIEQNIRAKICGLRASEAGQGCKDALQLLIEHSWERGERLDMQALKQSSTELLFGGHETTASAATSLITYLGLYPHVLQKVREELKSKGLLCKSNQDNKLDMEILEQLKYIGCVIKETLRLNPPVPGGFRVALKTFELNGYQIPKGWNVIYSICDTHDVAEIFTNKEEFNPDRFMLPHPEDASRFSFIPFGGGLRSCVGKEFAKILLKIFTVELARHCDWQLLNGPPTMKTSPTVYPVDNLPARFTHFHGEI
Summary of the method: (§1)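 Stably transfected HeLa cells (5×10^5/well) in MEM with 10% FBS and 0.05 μCi [3H]-RA, compounds at 10, 1 or 0.1 μM final, 3 h at 37° C. Retinoids extracted by modified Bligh-Dyer (methylene chloride); aqueous radioactivity counted; ID50 for 50% inhibition of RA metabolism derived from log-transformed data.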

[6] = target: T2, RAR γ; experiment: RAR γ EC50/(efficacy); format: cell-based; conditions: value in brackets of cell EC50/(EFFICACY)/Kd
[7] = target: T3, RAR α; experiment: RAR α EC50/(efficacy); format: cell-based; conditions: value in brackets of cell EC50/(EFFICACY)/Kd
[8] = target: T5, CYP26B (P450RAI-2) (Homo sapiens, UniProt Q9NR63); experiment: Cell-based inhibition of RA metabolism in CYP26B stably transfected HeLa cells; conditions: stably transfected HeLa cells, [3H]-RA, 3 hours at 37° C.; read-out: P450RAI-2 Whole cell IC50
T5 construct: expressed in transfected cells; host or cells: HeLa
T5 sequence (Q9NR63 1-512): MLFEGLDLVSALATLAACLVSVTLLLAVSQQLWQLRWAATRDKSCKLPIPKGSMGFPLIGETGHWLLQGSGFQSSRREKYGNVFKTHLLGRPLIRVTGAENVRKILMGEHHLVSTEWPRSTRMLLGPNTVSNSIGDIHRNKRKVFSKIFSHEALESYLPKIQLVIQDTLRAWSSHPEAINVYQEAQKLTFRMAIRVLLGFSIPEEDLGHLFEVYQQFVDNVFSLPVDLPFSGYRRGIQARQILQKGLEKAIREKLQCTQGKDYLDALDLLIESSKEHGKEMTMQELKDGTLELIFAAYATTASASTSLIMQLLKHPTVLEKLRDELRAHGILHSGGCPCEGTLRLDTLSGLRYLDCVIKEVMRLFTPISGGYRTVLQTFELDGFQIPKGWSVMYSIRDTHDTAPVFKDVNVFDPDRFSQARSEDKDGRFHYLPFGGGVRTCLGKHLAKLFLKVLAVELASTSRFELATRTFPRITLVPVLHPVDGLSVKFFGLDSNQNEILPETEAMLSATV
Summary of the method: as §1

[9] = tested on: hamster flank organ sebaceous gland; experiment: Hamster flank organ sebaceous gland differentiation (model for acne); format: in vivo, male golden syrian hamsters; conditions: given with 13-cis retinoic acid, FIG. 2
Description: Differentiation of hamster flank organ sebaceous gland is a model system for development of acne. To determine the effectiveness of selective CYP26B inhibitors for treating acne, such inhibitors were tested in this model system. To confirm that this model system can predict the effectiveness of a compound in reducing acne, 13-cis retinoic acid (acutane) was used as a positive control.
(§2) For the hamster model system, male golden syrian hamsters were fed LabDiet#5002 rodent diet and housed individually on a 14/10 hr light/dark cycle. For treatment, the animals were randomized according to body weight and they were also weighed at each treatment so that the drug doses could be adjusted accordingly. The animals were treated daily by oral gavage, 6 days/week for 4 weeks. At the end of treatments, the animals were sacrificed by carbon dioxide inhalation. The flank organs were then excised and spread on a small piece of index card which was placed in a histology cassette for fixation in 10% buffered formaldehyde. The specimen was divided into 5 equally spaced portions to make paraffin blocks and one 5-micrometer H&E sections was prepared from each block. The two sections that contained the most sebaceous glands were used to determine the average acini area of the flank organ. A video camera attached to a standard microscope with the 4× objective was used to capture the images of the sebaceous glands. Computer programs Videoshop and NIH Image 1.63 were used to quantify the acini areas. All the recognizable sebaceous glands in the two sections were analyzed and the means were derived for comparison among various treatments. In all studies, blood samples were also collected for determining the levels of serum triglyceride using a triglyceride GPO Trinder kit from Sigma Chemicals (St. Louis, Mo.).

[10] = format: in vivo; conditions: hamster, in vivo
Description: as §2
Experimental results showing the effect of various retinoid compounds on differentiation of sebaceous gland in […] flank organ were generated.

For `CC(C)c1cc(C(=O)Oc2ccc(/C=C/C(=O)O)cc2)cc2c1OC(C)(C)CC2(C)C` [Compound 16, 8-Isopropyl-2,2,4,4-tetramethyl-chroman-6-carboxylic acid 4-(2-carboxy-vinyl)-phenyl ester], the Kd [1] was 0.81 µM, the “RAR β (EFFICACY)” value [2] was 35 and the Kd [3] was over 10 µM. The Kd [4] was 3.08 µM, the IC50 [5] was 0.3 µM and the “RAR γ (EFFICACY)” value [6] was about 5. For the same molecule, the “RAR α (EFFICACY)” value [7] was about 5 and the IC50 [8] was over 10 µM.
In the case of `CN(c1cccc(C#Cc2ccc(/C=C/C(=O)O)cc2)c1)C1CC1` [Compound 37, (E)-3-{4-[3-(Cyclopropyl-methyl-amino)-phenylethynyl]-phenyl}-acrylic acid], the Kd [1] is reported as 7.02 µM, the “RAR β (EFFICACY)” value [2] is reported as 70 and the Kd [3] is reported as over 10 µM. The Kd [4] was over 10 µM, the IC50 [5] was over 10 µM and the “RAR γ (EFFICACY)” value [6] was 15. For the same molecule, the “RAR α (EFFICACY)” value [7] was 10 and the IC50 [8] was 0.5 µM.
For `CCc1ccc(C2=CC(C)(C)Sc3ccc(C#Cc4ccc(C(=O)O)cc4)cc32)cc1` [AGN194310], the “effect on the 13-cis retinoic acid-induced reduction in sebaceous gland differentiation” value [9] was “blocked the effect of 13-cis retinoic acid treatment on sebaceous gland differentiation”.
For `C/C(=C\c1ccc(C(=O)O)cc1)c1ccc2c(c1)C(C)(C)CCC2(C)C` [TTNPB], the toxicity [10] was “observed at effective doses”.
